The record followed here is patent publication US6468977B1, “Thiadiazole compounds useful as inhibitors of cysteine activity dependent enzymes” (Apotex Inc., priority 1998, dated 2002).

One data set concerns the target T1, Cathepsin B (Homo sapiens, UniProt P07858).
T1 construct: purchased Athens Research and Technology, Inc
Nature of the data set: Inhibition of cathepsin B, enzyme inactivation kinetics. The format is biochemical. The conditions noted are these: 25° C.; for k3 / kinact/KI / k3/Ki (second order rate of inhibition): pH 6.0; for Ki: pH 6.0, substrate N-Cbz-Phe-Arg 7-amido-4-methylcoumarin 100 μM; for kinact/KI: read-out: k3/Ki (second order rate of inhibition). The method, then:
Enzyme assays and kinetic measurements.
Enzyme regeneration. Cathepsin B (Athens Research and Technology, Inc.) was regenerated by incubation with 2.5 mM dithioerythritol, 2.5 mM EDTA and 0.005% (v/v) Brij-35 in 50 mM potassium phosphate pH 6.0 for 5 min. at 25° C. The excess of dithioerythritol was removed by size exclusion chromatography on a NAP-10 column (Pharmacia) equilibrated with 20 mM sodium acetate pH 5.0 containing 10 mM EDTA. Enzyme activated in this way was used within several hours.
Measurement of inactivation constants:
The reactions were incubated at 25° C. […] The reaction progress curves were recorded continuously over five half-lives. […] Briefly, the reaction progress curves were analyzed by non-linear regression to the exponential equation (2) and pseudo-first order rate coefficients (kapp.) were calculated for each inhibitor concentration. [drawing 36] Fluorescence=Ae^−k^app.^t+B (2)
Second order rate for inhibition (ki/Ki), ki and Ki were determined from equation (3) by plotting (I/kapp.) vs. [I]; [formula]
where Km is the Michaelis-Menten constant, [I] is inhibitor concentration and [S] is substrate concentration.

Data set [1] has as its system IL-1 induced proteoglycan degradation of articular cartilage. The data set is described as follows: IL-1-induced proteoglycan degradation of articular cartilage explants in vitro. The format is cell-based, calf. The conditions noted are these: 1×10^−6 M, IL-1 50 ng/ml, 72 h, p=0.023. On the procedure: The effect of Apo501 on IL-1 (interleukin) induced proteoglycan degradation of articular cartilage from normal calf joints was investigated in-vitro. Articular cartilage was sliced aseptically from the distal forelimb joints of less than 6-month old calves. […] The pooled, punched cartilage was washed and incubated in 20 ml of Ham's F12 medium with 5% FBS and 3% antibiotics for 72 hr at 37° C. for recovery.
Recovered explants were washed and replaced with a fresh medium. 20 μl (10 μCi/ml) of sodium [^35S] sulfate was added and cartilage explants incubated for 72 h at 37° C. to radiolabel proteoglycans. The explants was washed thoroughly (5 times) to remove free radioisotope and incubated in serum free, F-12 medium (3% Ab) overnight. Explants were then incubated in quadruplicate in fresh, serum free mediums containing varied concentrations of Apo-501 (10^−7, 10^−6, 10^−5, and 10^−4) for 24 h. […] The extent of proteoglycan degradation in each cartilage treated with different concentrations of Apo501 was determined by measuring the radioactivity of [^35S] sulfate-glycosaminoglycans by a liquid scintillation counter. Sample of 100 μl medium was added to 5 ml of scintillation cocktail (Ready Safe, Beckmann) and counted. Proteoglycan degradation was expressed as radiolabelled glycosaminoglycans released into the media (counts per min per ml) per dry weight (mg) of cartilage.

In the next data set the test system is Transglutaminase. Nature of the data set: Inhibition of transglutaminase, hydroxamate procedure, residual activity. The class given is biochemical. The conditions noted are these: 100 μM (0.1 mM, 10% MeOH), one hour of incubation. The method, then: Inhibition of transglutaminase by compounds of formula I (Enzyme Assay).
Transglutaminase activity is measured by the […] hydroxamate procedure (J. Biol. Chem., 1971, 246, 1093). The tested compounds were dissolved in methanol and added to a buffered solution of purified Transglutaminase to give a final concentration of 0.1 mM (10% MeOH). After on hour of incubation, the solution was assayed for residual activity using the standard activity assay.

SMILES strings stand for the structures. Counter-ions that a name gives are not always drawn.

The molecule `COc1nsc(N[C@@H](CC(C)C)C(=O)N2CCC[C@H]2C(=O)O)n1` [Example 11A, N-(3-methoxy-[1,2,4]thiadiazol-5-yl)-L-leucyl-L-proline] registered a melting point of 89 to 92 °C.

Molecule `CC[C@H](C)[C@H](Nc1nc(OC)ns1)C(=O)N1CCC[C@H]1C(=O)OC` [Example 12A, N-(3-methoxy-[1,2,4]thiadiazol-5-yl)-L-iso-leucyl-L-proline methyl ester] had a melting point of 129 to 130 °C.

Regarding `CC[C@H](C)[C@H](Nc1nc(OC)ns1)C(=O)N1CCC[C@H]1C(=O)O` [Example 13, N-(3-methoxy-[1,2,4]thiadiazol-5-yl)-L-iso-leucyl-L-proline], the melting point was 112 to 114 °C.

The molecule `CC[C@H](C)[C@H](Nc1nc(C(=O)c2ccccc2)ns1)C(=O)N1CCC[C@H]1C(=O)O` [Example 16, N-[3-benzoyl-[1,2,4]thiadiazol-5-yl]-L-iso-leucyl-L-proline] displayed a melting point of 132 to 134 °C.

Take `CC(C)C[C@H](Nc1nc(-c2ccccc2)ns1)C(=O)N1CCC[C@H]1C(=O)O` [apo5O9, N-(3-Phenyl-[1,2,4]thiadiazol-5-yl)-L-leucyl-L-proline]: at Cathepsin B, the k3 turned out to be 0.013 s⁻¹, the Ki was determined as 74 µM and the kinact/KI is 175 M⁻¹ s⁻¹.

For the molecule `COc1nsc(NC(=O)[C@H](Cc2ccccc2)NC(=O)OCc2ccccc2)n1` [apo201, 3-methoxy-5-(N-carbobenzyloxy-L-phenylalaninamido)-[1,2,4]thiadiazole], on Cathepsin B, the k3 was 0.013 s⁻¹, the “k3/Ki (second order rate of inhibition)” value was determined as 658 M⁻¹ s⁻¹ and the Ki was determined as 21 µM.

On to `CC(C)CC(Nc1nc(C(=O)O)ns1)C(=O)N1CCCC1C(=O)O` (stereo not shown) [apo310], for which, on Cathepsin B, the k3 turned out to be 0.089 s⁻¹, the Ki stood at 300 µM and the kinact/KI was 293 M⁻¹ s⁻¹.

In the case of `COc1nsc(N[C@@H](CC(C)C)C(=O)N2CCC[C@H]2C(=O)O)n1` [apo501, N-{(3-methoxy)-[1,2,4]thiadiazol-5-yl}-L-leucyl-L-proline. tris(hydroxymethyl)methylamine salt], on Cathepsin B, the k3 was determined as 0.015 s⁻¹, the Ki came out at 2.6 µM and the kinact/KI worked out at 5630 M⁻¹ s⁻¹. In data set [1], the “Reduction of IL-1-induced degradation of newly synthesized proteoglycan” value amounted to 60%.

Turning to `COc1nsc(NC(=O)N[C@@H](CC(C)C)C(=O)N2CCC[C@H]2C(=O)O)n1` [apo503], on Cathepsin B, the k3 is 0.014 s⁻¹, the “k3/Ki (second order rate of inhibition)” value stood at 36 M⁻¹ s⁻¹ and the Ki was determined as 390 µM.

`COc1nsc(NC(=O)[C@H](C)NC(=O)[C@H](Cc2ccccc2)NC(=O)OCc2ccccc2)n1` [apo504, 3-methoxy-5-(N-carbobenzyloxy-L-phenylalanyl-L-alaninamido)-[1,2,4]thiadiazole] registered a melting point of 161 to 162 °C. In addition, at Cathepsin B, the k3 is 0.032 s⁻¹, the Ki was determined as 37 µM and the kinact/KI is 864 M⁻¹ s⁻¹. Further, the “Inhibition of the enzyme (residual activity)” value with Transglutaminase was “completely inhibits”.

With `Cc1nsc(N[C@@H](CC(C)C)C(=O)N2CCC[C@H]2C(=O)O)n1` [apo510, N-(3-Methyl-[1,2,4]thiadiazol-5-yl)-L-leucyl-L-proline], on Cathepsin B, the k3 amounted to 0.026 s⁻¹, the Ki stood at 447 µM and the kinact/KI was determined as 55 M⁻¹ s⁻¹.

With `COc1nsc(NC(=O)NC(CC(C)C)C(=O)NCCC(C)C)n1` (stereo not shown) [apo1073, 5-{3-methoxy-1,2,4-thiadiazolyl}carbamoyl-leucyl isoamylamide], at Cathepsin B, the k3 worked out at 0.032 s⁻¹, the “k3/Ki (second order rate of inhibition)” value is 84 M⁻¹ s⁻¹ and the Ki stood at 367 µM.
